Experiments:
[1] = tested on: endothelial cells (HUVECs); experiment: Actin stress fiber formation in endothelial cells attached to collagen peptides; format: cell-based, human; settings: FIG. 7G
Description: CAMs examined for accumulation of granulation tissue were harvested, fixed in 4% PFA and paraffin embedded and sectioned (4 μm) and stained with Giemsa. CAM tissues analyzed via immunofluorescence were harvested, embedded with OCT, snap frozen and sectioned ([…]). Frozen sections were fixed in 50% methanol/50% acetone, air dried and blocked with 2.5% BSA for 1 h at 37° C. For expression of the XL313 and XL166 epitopes as well as monocyte/macrophages, FGF-2 stimulated CAM tissues were stained with Mabs XL313, XL166 (50 μg/ml) or KUL1 (1:250) and then incubated with Alexa-488 labeled secondary antibodies (1:2000 dilution). Co-staining of monocytes/macrophages and the Mab XL313 reactive epitope in FGF-2 stimulated CAMs was performed by sequential staining by first probing with KUL1 (1:250) and then with a biotinconjugated Mab XL313 (50 μg/ml), and with secondary antibodies Alexa-488 and streptavidin Alexa-594 (1:2000) respectively. Using a similar strategy, sections of RGD peptide-treated CAM tissues were analyzed for phosphorylated-P38MAPK in angiogenic vessels by co-incubation of anti-phospho-P38MAPK (1:50) and anti-vWf (1:500) antibodies. […] Cells were allowed to attach for 15, 30, or 60 min in the absence of serum and were fixed with 4% PFA. Fixed cells were washed and blocked with 2.5% BSA and stained with anti-YAP (1:200) and phalloidin (1:500). […]

HRMVEC = experiment: Endothelial cell proliferation with soluble RGD peptides; format: cell-based, human; settings: 100 ng/ml, 24 hours; FIG. 8D
Description: (§1) HUVECs (WT, shYAP1 or control transfected) or HRMVECs were plated at 2,000 cells per well with complete EGM-2 media containing 2.0% FBS in the absence or presence of P-1, P-2 or P-C (100 ng/ml) and allowed to grow for 24 hours. Cell growth was monitored using a BrdU or MMT assay kits according to manufacturer's instructions. All assays were completed at least three times in triplicate wells.

HUVEC = experiment: as above; format: cell-based, human; settings: 100 ng/ml, 24 hours; FIG. 8C
Description: as §1

integrin αvβ3 = target: T1, integrin αvβ3 (Homo sapiens, UniProt P05106+P06756); experiment: Solid phase ELISA, recombinant integrin αvβ3 binding to immobilized peptide P-2; settings: peptide immobilized 100 μg/ml; FIG. 30
T1 construct: purchased R&D Systems (Minneapolis, Minn.)
Description: The cryptic collagen peptide P-2 was immobilized (100 μg/ml) on microtiter wells and increasing concentrations of recombinant integrin αvβ3 was added and integrin binding was quantified. Data bars indicate mean integrin binding±standard deviation from triplicate wells.
The cryptic collagen peptide P-2 was immobilized (100 μg/ml) on microtiter wells and recombinant integrin αvβ3 was added and it was allowed to bind in the presence (50 μg/ml) or absence of Mab X1313 or control antibody (Mab XL166 directed to other collagen RGD peptides). Data bars indicate mean integrin binding±standard deviation from triplicate wells.

T1 sequence (P06756 31-992 limits assumed): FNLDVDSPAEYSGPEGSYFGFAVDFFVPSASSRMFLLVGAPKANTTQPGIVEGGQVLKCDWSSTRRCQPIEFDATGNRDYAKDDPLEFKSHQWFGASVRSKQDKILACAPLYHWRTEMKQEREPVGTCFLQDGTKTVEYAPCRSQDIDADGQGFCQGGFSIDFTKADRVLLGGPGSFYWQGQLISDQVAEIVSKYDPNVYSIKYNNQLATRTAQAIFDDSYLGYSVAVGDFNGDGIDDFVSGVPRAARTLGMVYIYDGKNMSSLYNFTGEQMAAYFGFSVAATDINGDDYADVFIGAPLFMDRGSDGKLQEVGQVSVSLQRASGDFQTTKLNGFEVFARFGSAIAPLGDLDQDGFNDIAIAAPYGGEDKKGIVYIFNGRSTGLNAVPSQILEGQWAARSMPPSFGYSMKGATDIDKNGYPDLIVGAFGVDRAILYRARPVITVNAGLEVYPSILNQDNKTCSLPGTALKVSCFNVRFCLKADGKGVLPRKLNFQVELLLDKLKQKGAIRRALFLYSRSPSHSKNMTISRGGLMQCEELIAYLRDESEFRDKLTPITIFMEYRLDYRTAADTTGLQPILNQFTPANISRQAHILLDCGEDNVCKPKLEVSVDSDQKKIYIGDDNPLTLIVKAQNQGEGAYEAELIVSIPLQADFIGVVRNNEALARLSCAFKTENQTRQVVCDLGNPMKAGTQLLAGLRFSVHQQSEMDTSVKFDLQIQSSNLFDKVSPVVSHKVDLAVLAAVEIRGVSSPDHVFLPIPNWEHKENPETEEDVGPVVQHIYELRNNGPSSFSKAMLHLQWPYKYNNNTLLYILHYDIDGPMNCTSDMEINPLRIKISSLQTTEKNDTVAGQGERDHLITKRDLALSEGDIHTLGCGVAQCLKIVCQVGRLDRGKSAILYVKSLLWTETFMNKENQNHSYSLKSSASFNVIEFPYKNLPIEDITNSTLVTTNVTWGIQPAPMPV
T1 sequence (P05106 27-718 limits assumed): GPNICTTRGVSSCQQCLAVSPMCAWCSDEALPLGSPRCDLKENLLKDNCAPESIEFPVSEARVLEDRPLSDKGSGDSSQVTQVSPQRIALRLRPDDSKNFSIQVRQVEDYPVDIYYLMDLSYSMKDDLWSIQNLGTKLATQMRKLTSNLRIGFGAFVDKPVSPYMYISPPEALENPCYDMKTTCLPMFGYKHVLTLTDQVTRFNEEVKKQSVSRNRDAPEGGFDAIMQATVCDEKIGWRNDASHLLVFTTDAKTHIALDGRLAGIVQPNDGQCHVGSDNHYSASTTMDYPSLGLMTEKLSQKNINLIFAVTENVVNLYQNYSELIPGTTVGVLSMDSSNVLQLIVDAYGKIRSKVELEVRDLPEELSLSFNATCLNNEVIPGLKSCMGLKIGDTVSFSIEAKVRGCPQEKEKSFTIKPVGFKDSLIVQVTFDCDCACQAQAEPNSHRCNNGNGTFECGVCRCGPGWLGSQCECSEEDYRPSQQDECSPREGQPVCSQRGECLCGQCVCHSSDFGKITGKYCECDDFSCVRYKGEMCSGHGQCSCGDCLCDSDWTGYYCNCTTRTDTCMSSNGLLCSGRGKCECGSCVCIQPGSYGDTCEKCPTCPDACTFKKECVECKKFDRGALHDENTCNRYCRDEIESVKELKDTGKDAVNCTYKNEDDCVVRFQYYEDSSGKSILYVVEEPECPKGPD

CQGPRGDKGEC [Mab P-2]
actin stress fiber formation as compared to P-1 [1]: accelerated actin stress fiber formation | HRMVEC growth with soluble peptide (HRMVEC): enhanced endothelial cell growth | HUVEC growth with soluble peptide (HUVEC): enhanced endothelial cell growth | binding of integrin receptor αvβ3 to peptide (integrin αvβ3): dose-dependently binds
